Measurements published in patent US12083113B2, “Use of neuronal nitric oxide synthase inhibitors for immunotherapy in melanoma patients” (Northwestern University, priority 2018, dated 2024).

How the values were obtained:
[1] = system: A375 human melanoma xenograft; experiment: A375 melanoma xenograft, HH044 20 mg/kg (Example 2)
[2] = system: human melanoma cell lines (A375, Sk-Mel-28, wm3211); experiment: Cytotoxicity by MTT colorimetric analysis in human melanoma cell lines; format: cell-based; settings: read-out: Cytotoxicity (IC50 from 3 melanoma cell lines)
Description: Table 1. […] All the NOS isozymes used were recombinant enzymes overexpressed in E. coli. Ki values are calculated directly using known literature methods and detailed in co-PI R. Silverman's published manuscripts (17, 18, 64, 85). Cytotoxic effects of nNOS inhibitors in human melanoma were detected by MTT colorimetric analysis (85). The IC50 values are the average of at least two human melanoma cell lines.

PD-L1 in A375 cells = experiment: PD-L1 expression by immunofluorescence staining; format: cell-based, human; settings: for extracellular expression of PD-L1: interferon alone, 250 Units/ml
Description: FIG. 5. Expression of PD-L1 in metastatic melanoma A375 cells detected by immunofluorescence staining. […]. Cells were then fixed and permeabilized with 4% formaldehyde and methanol. Samples were blocked in blocking buffer containing 5% horse serum for 1 hour. The slides were then allowed to incubate in a 1:50 PD-L1 antibody dilution overnight at 4° C. and DAPI reagent for 1 hour. Representative images are shown stained with PD-L1 antibody (green) and DAPI (blue fluorescence). (Original magnifications, 100×). Representative images for 2 experimental replicates are shown.
Expression levels of PD-L1 detected by Immunofluorescence. A375 cells were plated on coverslips and incubated with 250 units/mL of IFN-α or IFN-γ in the presence or absence of […] of nNOS inhibitors for 72 hours. After treatment, cells on coverslips were fixed with 4% formaldehyde/PBS for 15 minutes at room temperature, followed by incubation with ice-cold 100% methanol for 10 minutes at −20° C. Samples were then incubated in blocking buffer (1×PBS, 5% horse serum, 0.3% Triton X-100) for 60 minutes, then in a 1:50 PD-L1 antibody dilution in dilution buffer (1×PBS, 1% BSA, 0.3% Triton X-100) overnight at 4° C. Stained specimens were rinsed with PBS then cured in the dark with DAPI fluorescence staining reagent for 1 hour. Slides were visualized and recorded using the BZ-X700 microscope (Keyence, Itasca, IL).

[3] = system: PD-L1 in A375 melanoma cells; experiment: Cell surface PD-L1 expression by flow cytometry; format: cell-based, human; settings: for MFI of PD-L1 staining obtained via flow cytometry: IFN-γ alone or with MAC-3-190 (3 μM), 72-hour treatment; for cell surface expression of PD-L1: interferon alone, three cell lines
Description: FIG. 4. […] Three melanoma cell lines were treated with 250 units/mL of interferons for 48 hours. Whole cell lysates were collected and subjected to RPPA assay. […] Red, high expression; green, low expression. All the data points were normalized for protein loading and transformed to linear value. […] Cell surface expression of PD-L1 was determined by flow cytometry. Representative histograms out of two independent experimental replicates are shown. C) IFN-α or IFN-γ (100 Units/ml); D-E) IFN-α or IFN-γ (250 Units/ml).
Expression levels of PD-L1 detected by Flow Cytometry.

[4] = system: Human A375 metastatic melanoma xenograft; experiment: A375 melanoma xenograft, IFN-γ with or without MAC-3-190; format: in vivo, nude mice; settings: for PD-L1-positive staining in xenograft tumors (immunohistochemistry): 21-day treatment, IFN-γ 1000 units per mouse i.p. daily, with or without MAC-3-190 5 mg/kg/day
Description: FIG. 6. […] Data was represented as mean±SD.
FIG. 7. Expression of PD-L1 in xenograft tumor samples obtained from the subject is administered an inhibitor of NOS and further is administered study detected by immunohistochemistry staining. PD-L1 staining (brown) of specimens at 100× (A) and 20× (B) magnification. […] . PD-L1 (C) and CD8 (D) stained specimens captured at 2× magnification.
In Vivo Xenograft Melanoma. […] .

Sk-mel-28 cells = experiment: Cytotoxicity in Sk-mel-28 cells; format: cell-based, human
A375 cells = experiment: Cytotoxicity in A375 cells; format: cell-based, human
STAT1 = experiment: Western blot of STAT1 in A375 cells; format: cell-based, human; settings: interferon alone
Description: (§1) FIG. 3. […] A375 cells were treated with 100 units/mL and 250 units/mL of IFN-γ or IFN-α for 24 hours; whole cell lysates and nuclear extracts were used for Western blot analysis to detect STAT3 and pSTAT3 respectively. […] Protein isolation and Western blotting. All samples were kept at 4° C. unless otherwise noted.
(§2) The membranes were blocked using 10% non-fat milk (NOS1, STAT1/2, Actin, Lamin A/C) or 5% bovine serum albumin (BSA; SH3057402; Fisher Scientific, Waltham, MA) (p-STAT1/3), then incubated with primary antibodies for 1 hour at room temperature or overnight at 4° C., followed by secondary antibodies for 1 hour at room temperature as recommended by the manufacturer. Blots were washed extensively with TBS-T after each antibody incubation.

[5] = system: intracellular NO in melanoma cells; experiment: Intracellular nitric oxide levels, DAF-FM fluorescence probe; format: cell-based, human; settings: DAF-FM probe after interferon exposure
Description: (§3) FIG. 2. A-C) Effects of IFN-α and IFN-γ treatment on nNOS expression levels in human primary melanoma WM3211 cells (A-B) and metastatic melanoma A375 cells. C) Distinct effects of IFN-α and IFN-γ on nNOS expression of A375 metastatic melanoma cells. A375 cells were treated with 500 units/mL of IFN-α or IFN-γ for 48 hours and whole cell lysates were collected. Samples were subjected to Western blot analysis for nNOS. A control of the protein loading was performed by detecting actin. D) Intracellular nitric oxide levels detected by microplate reader using DAF-FM fluorescence probe after IFN-α or IFN-γ treatment for 24 hours. E) IFN-γ-inducible nNOS expression was abrogated in nNOS-depleted melanoma cells. A375 cells transfected with shRNA-nNOS were treated with IFN-γ for 24 hours, followed by Western blot analysis.
Detection of intracellular nitric oxide levels. Cultured cells in a 96-well plate were treated with 100 units/mL of IFN-α or IFN-γ for 48 hours. Once the incubation period was complete, the media was removed and replaced with Hank's Balanced Salt Solution (HBSS). 1 μM of 4-Amino-5-methylamino-2′,7′-difluorofluorescein (DAF-FM) probe was added to each condition and fluorescence levels produced by DAF-FM were detected using a fluorescence microplate reader with excitation and emission wavelengths of 485 and 538 nm, respectively.

[6] = system: WM115, Sk-mel-28 and A375; experiment: Reverse Phase Protein Array in three human melanoma cell lines; format: cell-based; settings: 250 units/mL interferon; for PD-L1 expression level (RPPA): average of three cell lines
Description: FIG. 4. A) Heat map of Reverse Phase Protein Array (RPPA) showing distinct effects of IFN-α and IFN-γ on protein expression levels in three human melanoma cell lines (WM115, Sk-mel-28 and A375). Three melanoma cell lines were treated with 250 units/mL of interferons for 48 hours. Whole cell lysates were collected and subjected to RPPA assay. […] Red, high expression; green, low expression. All the data points were normalized for protein loading and transformed to linear value. […] Average changes of three cell lines detected by RPPA were shown in the figure. *, p<0.05 in comparison to control and IFN-α. C-E) Induction of PD-L1 by IFN-γ was diminished by the co-treatment of nNOS inhibitors. […]. Cell surface expression of PD-L1 was determined by flow cytometry. Representative histograms out of two independent experimental replicates are shown. C) IFN-α or IFN-γ (100 Units/ml); D-E) IFN-α or IFN-γ (250 Units/ml).
Reverse Phase Protein Array. Plated cells were treated with 250 units/mL of IFN-α or IFN-γ for […]. After washing with 1×PBS, lysis buffer (1% Triton X-100, 50 mM HEPES, pH 7.4, 150 mM NaCl, 1.5 mM MgCl2, 1 mM EGTA, 100 mM NaF, 10 mM Na pyrophosphate, 1 mM Na3VO4, 10% glycerol and 1% PIC) was added to the plates, followed by incubation on ice for 20 minutes with occasional shaking. Samples were then collected via scraping and spun down at 14,000 g^−1 for 10 minutes at 4° C. The protein concentration was then quantified by Bradford method and adjusted to 1.5 μg/μL with lysis buffer. Cell lysates were then mixed with 4×SDS sample buffer (40% glycerol, 8% SDS, 0.25M Tris-HCl, pH 6.8 with 10% BME). Miniscule amounts of serially diluted protein samples were then dotted on a nitrocellulose coated slide and probed with validated primary antibodies and a biotin-conjugated secondary antibody. The signals were amplified using Dako-Cytomation-Catalyzed system (Dako) and visualized by diaminobenzidine (DAB) colorimetric reaction. Dilution curves were fitted with Supercurve Fitting and the protein expressions normalized for protein loading.

[7] = system: nNOS expression in WM3211 cells; experiment: Western blot of nNOS expression in primary melanoma WM3211 cells; format: cell-based, human; settings: IFN-γ persisted after 96 hours, IFN-α within 4 hours, recovered by 24 hours
Description: as §3
Protein isolation and Western blotting. All samples were kept at 4° C. unless otherwise noted. […]
Equal amounts of protein, as detected by Bradford assay, were loaded and resolved on 7.5% SDS-polyacrylamide gels, then transferred to Immobilon-P^SQ polyvinylidene difluoride (PVDF) membranes (ISEQ00010; Merck KGaA, Darmstadt, Germany). […] Labeled bands were detected using SuperSignal horseradish peroxidase chemiluminescence reagents (1859674; 1859675; Thermo Fisher Scientific, Waltham, MA) and images were captured and analyzed using the Bio-Rad ChemiDoc XRS^+ System.

[8] = system: A375 metastatic melanoma cells; experiment: Matrigel invasion assay; format: cell-based, human; settings: compared to control, p<0.05
Description: (§4) FIG. 1. A) Effect of IFN-γ on melanoma invasion potential detected by matrigel invasion assay. The represented data were from A375 metastatic melanoma cells treated with IFN-γ. *, p<0.05 compared to control. B) Adhesion analysis. A375 melanoma cells were seeded on top of fibroblast monolayer and incubated with IFN-γ for 1 hour, followed by MTT assay. *, p<0.05 compared to control.

A375 melanoma cells = experiment: Adhesion of melanoma cells to fibroblast monolayer; format: cell-based, human; settings: incubated 1 hour, MTT assay
Description: as §4

STAT3 = experiment: Western blot of STAT3 and phospho-STAT3 in A375 cells; format: cell-based, human; settings: A375 cells exposed to interferon, 24 hours
Description: as §1
Nuclear and cytosolic protein extraction is described elsewhere (84). Cells were collected via centrifugation and re-suspended in buffer A (10 mM HEPES, pH 7.9, 10 mM KCl, 0.150 mM MgCl2, 0.5 mM DTT, 0.2 mM PMSF) with 1% PIC and allowed to swell for 10 minutes. 10% NP-40 was added and vortexed to lyse the cells. […] Buffer D (20 mM HEPES, 20% glycerol, 50 mM KCl, 0.5 mM EDTA, 0.5 mM DTT, and 0.2 mM PMSF) was then added to dilute the nuclear sample.
as §2

## N=C(Nc1ccc(CCNCc2cccc(NC(=N)c3cccs3)c2)cc1)c1cccs1 [HH044]
[1]; 20 mg/kg/day for 21 days
  lung, liver, and kidney weights: no significant changes
[1]; 20 mg/kg/day for 21 days, 23.9 g in control group
  body weight: 22.6 g
[1]; 20 mg/kg/day, not statistically significant (p>0.05)
  reduction in body weight: < 10%
[2]
  IC50: 5.27 ± 3.3 µM

## CNCc1cccc(CCc2ccc3c(C)cc(N)nc3c2)c1 [MAC-3-190]
PD-L1 in A375 cells; co-treatment with 3 μM, IFN-γ 250 Units/ml, 72 hours
  IFN-γ-inducible PD-L1 expression: significantly diminished
PD-L1 in A375 cells; treatment with inhibitor alone, compared to control
  basal level of PD-L1: did not alter
[3]; A375 cells
  MFI of PD-L1 staining obtained via flow cytometry: 1.9 folds of control
[3]; A375 cells, co-treatment with nNOS inhibitor 3 μM, 72 hours
  Induction of PD-L1 by IFN-γ, cell surface expression: diminished
[4]; 10 mg/kg/day
  PD-L1 expression in xenograft tumors: significantly reduced
[4]
  PD-L1-positive staining in xenograft tumors (immunohistochemistry): > 15%
[4]; co-treatment, 5 mg/kg subcutaneously injected daily, p<0.05 compared to IFN-γ treatment
  induction in tumor volume by IFN-γ, end of study: effectively diminished

## N.N.[Cl][Pt][Cl] [cisplatin]
Sk-mel-28 cells
  IC50: 14.3 µM
A375 cells
  IC50: 4.2 µM

## IFN-α
PD-L1 in A375 cells; 72 hours
  extracellular expression of PD-L1: low basal expression
STAT1
  expression of STAT1: increase
[5]
  intracellular NO levels: significantly decreased
[6]
  PD-L1 expression level (RPPA): absent
[3]
  cell surface expression of PD-L1: reduced
[7]
  nNOS expression levels: undetectable levels

B1: IFN-γ: Interferon-gamma, purchased from Invitrogen (protein, UniProt P01579 24-161, looked up)
Interferon gamma: QDPYVKEAENLKKYFNAGHSDVADNGTLFLGILKNWKEESDRKIMQSQIVSFYFKLFKNFKDDQSIQKSVETIKEDMNVKFFNSNKKKRDDFEKLTNYSVTDLNVQRKAIHELIQVMAELSPAAKTGKRKRSQMLFRG
[8]
  melanoma invasion potential: significantly enhanced
PD-L1 in A375 cells; 72 hours
  extracellular expression of PD-L1: markedly induced
STAT1
  expression of STAT1: higher induction
[5]
  intracellular NO levels: elevated
[6]
  c-Myc and HIF-1α expression levels (RPPA): Increased
  PD-L1 expression level (RPPA): 1.8 fold of control
[3]; A375 cells
  MFI of PD-L1 staining obtained via flow cytometry: 3.3 folds of control
[3]
  cell surface expression of PD-L1: increased
[4]
  PD-L1-positive staining in xenograft tumors (immunohistochemistry): > 20%
[4]; IFN-γ 1000 units/day, 21 days
  tumor growth in vivo: significantly stimulated
[7]
  nNOS expression levels: markedly induced
A375 melanoma cells
  adhesion capacity of melanoma cells to fibroblast cells: significantly enhanced
STAT3
  Phospho-STAT3 levels: 1.9 folds of control
  expression levels of STAT3: 1.6 folds of control
